The source made the active and inactive calls. The rule behind the calls is not given here.
Assays:
PC-3 [1] = experiment: Antiproliferative activity against human PC3 cells assessed as inhibition of cell viability at 0.5 to 5 uM after 72 hrs by CCK8 assay; assay type: functional, cell-based
PC-3 [2] = experiment: Antiproliferative activity against human PC3 cells assessed as reduction in cell viability after 72 hrs by CCK8 assay; assay type: functional, cell-based; conditions: PC-3, 72 h
PANC-1 = experiment: Antiproliferative activity against human PANC1 cells assessed as reduction in cell viability after 72 hrs; assay type: functional, cell-based; conditions: PANC-1, 72 h
PC-3 [3] = experiment: Antiproliferative activity against human PC3 cells at 0.5 uM assessed as inhibition of cell viability after 72 hrs by CCK-8 assay relative to control; assay type: functional; conditions: PC-3, 72 h

Row | SMILES | Activity (PC-3 [1]) | further results
1 | CCc1c(C(=O)OC)c2ccccc2n2c(=O)c3ccccc3n12 | inactive | –
2 | CCOC(=O)c1c(-c2ccccc2)n2c3ccccc3c(=O)n2c2ccc(Br)cc12 | Active | –
3 | CCOC(=O)c1c(C)n2c3ccccc3c(=O)n2c2ccccc12 | Active | –
4 | O=C1CCc2c1c1ccccc1n1c(=O)c3ccccc3n21 | Active | –
5 | COC(=O)c1c(C)n2c3ccccc3c(=O)n2c2c(F)cccc12 | Active | IC50 (PC-3 [2]): 334 nM; IC50 (PANC-1): 528 nM
6 | COC(=O)c1c(C2CC2)n2c3ccccc3c(=O)n2c2ccccc12 | inactive | –
7 | CCOC(=O)c1c(C)n2c3ccc(OC)cc3c(=O)n2c2ccccc12 | Active | IC50 (PC-3 [2]): 475 nM; IC50 (PANC-1): 506 nM
8 | CCOC(=O)c1c(-c2ccccc2)n2c3ccc(F)cc3c(=O)n2c2ccccc12 | Active | –
9 | CCOC(=O)c1c(C)n2c3ccccc3c(=O)n2c2ccc(OC)cc12 | Active | –
10 | COC(=O)c1c(C)n2c3ccccc3c(=O)n2c2cc3ccccc3cc12 | Active | –
11 | CCOC(=O)c1c(C)n2c3ccccc3c(=O)n2c2cc(OC)cc(OC)c12 | Active | –
12 | CCOC(=O)c1c(-c2ccc(C)cc2)n2c3ccccc3c(=O)n2c2ccccc12 | Active | –
13 | CCOC(=O)c1c(C)n2c3ccccc3c(=O)n2c2ccc(Cl)cc12 | Active | –
14 | CCOC(=O)c1c(-c2ccccc2)n2c3ccccc3c(=O)n2c2ccc3c(c12)OCO3 | Active | inhibition at 0.5 µM (PC-3 [3]): 39.5%; IC50 (PC-3 [2]): 5820 nM; IC50 (PANC-1): > 50000 nM
15 | CCOC(=O)c1c(-c2ccccc2)n2c3ccccc3c(=O)n2c2ccc(C)cc12 | Active | –
16 | CCOC(=O)c1c(-c2ccc(F)cc2)n2c3ccccc3c(=O)n2c2ccccc12 | Active | –
17 | O=C1CCc2c1c1c3c(ccc1n1c(=O)c4ccccc4n21)OCO3 | Active | –
18 | CCOC(=O)c1c(-c2ccco2)n2c3ccccc3c(=O)n2c2ccccc12 | Active | –
19 | CCOC(=O)c1c(-c2ccccc2)n2c3ccccc3c(=O)n2c2ccc(Cl)cc12 | Active | IC50 (PC-3 [2]): > 50000 nM; IC50 (PANC-1): > 50000 nM

Row | SMILES | Activity (PC-3 [1]) | further results
20 | CCOC(=O)c1c(-c2ccccc2)n2c3ccccc3c(=O)n2c2ccc(C#N)cc12 | Active | –
21 | COP(=O)(OC)c1c(C)n2c3ccccc3c(=O)n2c2ccccc12 | inactive | –
22 | CCOC(=O)c1c(-c2cccc(OC)c2)n2c3ccccc3c(=O)n2c2ccccc12 | Active | –
23 | O=C1CCCc2c1c1cc(F)ccc1n1c(=O)c3ccccc3n21 | Active | –
24 | O=C1CCc2c1c1cccc(F)c1n1c(=O)c3ccccc3n21 | Active | –
25 | CCOC(=O)c1c(-c2ccccc2)n2c3ccccc3c(=O)n2c2ccc(I)cc12 | Active | –
26 | CCOC(=O)c1c(-c2ccccc2)n2c3ccc(OC)cc3c(=O)n2c2ccccc12 | Active | –
27 | CC(C)[C@]12O[C@H]1[C@@H]1O[C@@]13[C@@]1(C)CCC4=C(COC4=O)[C@@H]1C[C@@H]1O[C@@]13C2=O [TRIPTONIDE] | – | IC50 (PC-3 [2]): 25 nM; IC50 (PANC-1): 47 nM
28 | O=C1CCc2c1c1cc(Cl)ccc1n1c(=O)c3ccccc3n21 | Active | –
29 | COc1cc(OC)c2c3c(n4c5ccccc5c(=O)n4c2c1)CCC3=O | Active | –
30 | CCOC(=O)c1c(C)n2c3ccccc3c(=O)n2c2ccc(F)cc12 | Active | –
31 | COC(=O)c1c(C)n2c3ccccc3c(=O)n2c2ccc(OC(F)(F)F)cc12 | Active | –
32 | CCOC(=O)c1c(-c2ccccc2)n2c3ccccc3c(=O)n2c2ccc(F)cc12 | Active | –
33 | CCOC(=O)c1c(-c2ccccc2)n2c3ccccc3c(=O)n2c2ccccc12 | Active | –
34 | O=C1CCc2c1c1cc(Br)ccc1n1c(=O)c3ccccc3n21 | Active | –
35 | CCOC(=O)c1c(-c2ccccc2)n2c3ccccc3c(=O)n2c2ccc(OC)cc12 | Active | IC50 (PC-3 [2]): 2020 nM; IC50 (PANC-1): 4230 nM
36 | CCOC(=O)c1c(C)n2c3ccccc3c(=O)n2c2ccc(I)cc12 | Active | –
37 | Cc1c(C(=O)OCCO)c2ccccc2n2c(=O)c3ccccc3n12 | inactive | –
38 | COc1ccc2c(c1)c1c(n3c4ccccc4c(=O)n23)CCC1=O | Active | –

Row | SMILES | Activity (PC-3 [1]) | further results
39 | CCOC(=O)c1c(-c2ccc(I)cc2)n2c3ccccc3c(=O)n2c2ccccc12 | Active | IC50 (PC-3 [2]): 3980 nM; IC50 (PANC-1): 6820 nM
40 | COC(=O)c1c(C)n2c3ccccc3c(=O)n2c2ccccc12 | Active | IC50 (PC-3 [2]): 1010 nM; IC50 (PANC-1): 551 nM
41 | CCOC(=O)c1c(-c2ccccc2)n2c3ccccc3c(=O)n2c2cc(OC)cc(OC)c12 | Active | –
42 | CCOC(=O)c1c(-c2ccc(OC)cc2)n2c3ccccc3c(=O)n2c2ccccc12 | Active | –
43 | CCOC(=O)c1c(-c2ccccc2)n2c3ccccc3c(=O)n2c2ccc(-c3ccccc3)cc12 | Active | –
44 | COc1cc2c(c(OC)c1OC)c1c(n3c4ccccc4c(=O)n23)CCC1=O | Active | –
45 | CCOC(=O)c1c(-c2ccccc2)n2c3ccccc3c(=O)n2c2ccc(N3CCOCC3)cc12 | Active | IC50 (PC-3 [2]): 7490 nM; IC50 (PANC-1): 13800 nM
46 | O=C(OCCO)c1c(-c2ccccc2)n2c3ccccc3c(=O)n2c2ccccc12 | inactive | –
47 | CCOC(=O)c1c(C)n2c3ccccc3c(=O)n2c2ccc(Br)cc12 | Active | –
48 | CCOC(=O)c1c(C)n2c3ccccc3c(=O)n2c2c(OC)cccc12 | Active | IC50 (PC-3 [2]): 216 nM; IC50 (PANC-1): 116 nM
49 | CCOC(=O)c1c(C)n2c3ccccc3c(=O)n2c2ccc(C)cc12 | Active | –
50 | O=C1NCCc2c1c1ccccc1n1c(=O)c3ccccc3n21 | Active | –
51 | CCc1ccc2c(c1)c(C(=O)OC)c(C)n1c3ccccc3c(=O)n21 | Active | –
52 | COc1cccc2c3c(n4c5ccccc5c(=O)n4c12)CCC3=O | Active | –
53 | O=C1CCc2c1c1cc(I)ccc1n1c(=O)c3ccccc3n21 | Active | –
54 | COC(=O)c1c(C)n2c3ccccc3c(=O)n2c2cc(OC)c(OC)c(OC)c12 | Active | –
55 | O=C1CCCc2c1c1ccccc1n1c(=O)c3ccccc3n21 | Active | –
56 | COc1ccc2c(c1)c1c(n3c4ccccc4c(=O)n23)CCCC1=O | Active | –
